# Experimental data from publication PMC13249053, “Mechanism of auranofin toxicity: Inhibition of tetrahydrobiopterin metabolism” (Toxicology and applied pharmacology, 2025).
# “And” between values parts separate entries of the source, which are not always exact repeats. Identical values can stand only once. Like-named read-outs stand apart in the source and are kept apart here.
# Legend:
# SPR [1] = target: T1, SPR (Rattus norvegicus, UniProt P18297); experiment: Cellular SPR activity: BH2 formation from sepiapterin in the presence of methotrexate, PC12 cells; assay type: cell-based; settings: PC12 (rat pheochromocytoma); with methotrexate
# T1 construct: endogenous in cells; host or cells: PC12
# T1 sequence (P18297 whole entry): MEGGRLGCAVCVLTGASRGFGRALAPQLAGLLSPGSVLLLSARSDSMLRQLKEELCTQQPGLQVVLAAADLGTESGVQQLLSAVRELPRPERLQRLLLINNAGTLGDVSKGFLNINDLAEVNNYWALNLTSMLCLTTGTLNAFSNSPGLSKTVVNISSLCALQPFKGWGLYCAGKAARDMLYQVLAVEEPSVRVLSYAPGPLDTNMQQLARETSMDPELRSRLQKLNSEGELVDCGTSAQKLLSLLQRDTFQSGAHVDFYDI
# Protocol: The growth medium was then removed and the cells incubated with growth medium containing 100 μM sepiapterin. […] BH2 and BH4 were then analyzed on a Jasco high-performance liquid chromatography system (Easton, MD) fitted with a Maxsil-10 C18 column (250 × 4 mm; Phenomenex, Torrance, CA). […] Cell viability following drug treatments was greater than 95 %.
# cells = experiment: Cell viability (alamarBlue) following drug treatments; settings: cells pretreated with auranofin and/or methotrexate for 2 h, then sepiapterin 3 h
# SPR [2] = target: SPR (Homo sapiens, UniProt P35270); experiment: Sepiapterin reduction by recombinant SPR (absorbance at 420 nm); assay type: biochemical; parameters: made in house
# SPR (Homo sapiens, UniProt P35270), sequence (P35270 whole entry): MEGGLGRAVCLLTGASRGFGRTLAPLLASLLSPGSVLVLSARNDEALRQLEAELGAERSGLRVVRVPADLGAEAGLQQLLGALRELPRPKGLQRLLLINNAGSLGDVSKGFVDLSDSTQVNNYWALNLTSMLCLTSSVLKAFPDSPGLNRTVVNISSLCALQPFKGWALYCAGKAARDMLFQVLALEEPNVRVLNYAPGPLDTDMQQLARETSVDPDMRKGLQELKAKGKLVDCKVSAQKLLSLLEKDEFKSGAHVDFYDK
# Protocol: Sepiapterin reductase activity was assayed by measuring decreases in sepiapterin absorbance at 420 nm as described by Kato ([Kato, 1971]) with some modifications. Briefly, standard reaction mixes contained 100 mM potassium phosphate buffer, pH 7.0, 100 μM NADPH, 50 μM sepiapterin and 1 μg of enzyme protein in a final volume of 0.2 ml. Changes in absorbance of sepiapterin were monitored using a Spectramax M5 microplate reader (Molecular Devices, Sunnyvale, CA). […] Chemical redox cycling by SPR was assayed by measuring the formation of superoxide anion in the presence of menadione as previously described ([Yang et al., 2013]). […] Superoxide anion was measured spectrophotometrically by the reduction of acetylated cytochrome c at 550 nm. DHFR activity was measured as previously described ([Whitsett et al., 2013]) with some modifications. […] Enzyme activity was monitored by decreases in absorbance of NADPH at 340 nm using a microplate reader. […]
# Fig. 5. […] SPR was measured in enzyme assays by decreases in sepiapterin absorbance at 420 nm as described in the Materials and Methods. DHFR activity in enzyme assays was measured by decreases in absorbance of NADPH at 340 nm. […] Redox cycling was measured spectrophotometrically by the reduction of acetylated cytochrome c at 550 nm during the formation of superoxide anion in enzyme assays in the presence of 100 μM menadione.
# DHFR = target: T2, DHFR (Homo sapiens, UniProt P00374); experiment: Cellular DHFR activity: BH4 formation from BH2, human cell lines; assay type: cell-based; parameters: endogenous in cells; host or cells: HaCaT, Jurkat, BeWo, SKNMC, CX-1
# T2 sequence (P00374 1-187): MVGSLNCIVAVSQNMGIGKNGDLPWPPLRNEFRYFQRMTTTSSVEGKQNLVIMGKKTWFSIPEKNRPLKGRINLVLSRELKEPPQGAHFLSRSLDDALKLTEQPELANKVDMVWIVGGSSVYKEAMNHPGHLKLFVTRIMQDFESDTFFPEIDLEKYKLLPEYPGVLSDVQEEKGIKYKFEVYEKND
# Protocol: Metabolic products of sepiapterin (BH2 and BH4) in intact cells and cell lysates were measured using HPLC as previously described ([Ferre and Naylor, 1988]) with some modifications ([Yang et al., 2013]; [Yang et al., 2015]). Briefly, cells in six-well culture dishes were grown until 60–70 % confluent (~1 × 10^6 cells/well). The growth medium was then removed and the cells incubated with growth medium containing 100 μM sepiapterin. After 3 h, cells were harvested, centrifuged (1500 g, 10 min), and pellets suspended in 200 μl of lysis buffer (50 mM Tris-HCl, pH 7.4, 137 mM NaCl, 0.5 % Nonidet P-40 (NP-40), 0.5 mM EDTA) for 20 min on ice. […] Thirty min later, 50 μl of 1 M H3PO4 was added to the supernatants and the precipitated proteins removed by centrifugation (15,000 g, 3 min). After standing for 10 min at room temperature, excess iodine was reduced by the addition of 25 μl of 57 mM ascorbic acid to the reaction mix. BH2 and BH4 were then analyzed on a Jasco high-performance liquid chromatography system (Easton, MD) fitted with a Maxsil-10 C18 column (250 × 4 mm; Phenomenex, Torrance, CA). Fluorescence was monitored using a Jasco FP-2020 spectrofluorometer with excitation and emission wavelengths set at 362 and 435 nm, respectively ([Yang et al., 2013]; [Yang et al., 2015]).
# Fig. 8. […] DHFR enzyme activity in the cells was assayed by the metabolism of BH2 to BH4. Upper panels. HaCaT cells were treated with control medium or medium containing increasing concentrations of auranofin for 2 h followed by the addition of 200 μM BH2. After an additional 3 h, cells were rinsed with PBS and BH2 and BH4 analyzed by HPLC as described in the Materials and Methods. Lower panels. […] Cells were treated with the drug for increasing periods of time (0–2 h) followed by 200 μM BH2. After an additional 3 h, cells were rinsed with PBS and analyzed for BH2 and BH4 content.
smiles,measurement,setting,value
"CC[PH](CC)(CC)[Au][S][C@@H]1O[C@H](COC(C)=O)[C@@H](OC(C)=O)[C@H](OC(C)=O)[C@H]1OC(C)=O [auranofin, 2,3,4,6-tetra-O-acetyl-1-thio-β-D-glucopyranosato-S-triethyl phosphine gold]",IC50,SPR [1],1 ± 0.11 µM
same,cell viability following drug treatments,cells,greater than 95%
same,recombinant SPR activity versus control,"SPR [2]; 10 μM auranofin, n = 3, P < 0.05",Significantly different
same,IC50,"SPR [2]; 50 μM sepiapterin, 100 μM NADPH, pH 7.0, auranofin added 10 min before, read-out: IC50, inhibition of sepiapterin reduction by recombinant SPR",1.5 µM and 1.53 µM
same,IC50,"DHFR; BeWo (human choriocarcinoma), BH4 formation from BH2, read-out: DHFR IC50, BeWo cells",3.9 ± 0.15 µM
same,IC50,"DHFR; CX-1 (human colon adenocarcinoma), BH4 formation from BH2, read-out: DHFR IC50, CX-1 cells",7.3 ± 0.1 µM
same,IC50,"DHFR; HaCaT (human keratinocytes), auranofin 2 h, then 200 μM BH2 3 h, read-out: DHFR IC50, HaCaT cells",6.3 ± 0.75 µM
same,time of pretreatment to maximal inhibition of cellular DHFR,"DHFR; HaCaT cells, 20 μM auranofin",2 h
same,IC50,"DHFR; Jurkat (human leukemia), BH4 formation from BH2, read-out: DHFR IC50, Jurkat cells",5.4 ± 0.07 µM
same,IC50,"DHFR; SKNMC (human neuroblastoma), BH4 formation from BH2, read-out: DHFR IC50, SKNMC cells",15.2 ± 0.53 µM
